The source of these data is patent US20240228488A1 (TAKEDA PHARMACEUTICAL COMPANY LIMITED, priority 2021, published 2024).

As usually defined, the EC50 is the concentration at which the effect is half-maximal. The IC90 is the point of the concentration-response curve where the effect stands at 90%.

Each structure is given as a SMILES string.

For assay [1], the target named is human activated kallikrein enzyme (Homo sapiens, UniProt P03952). Briefly: Plasma kallikrein inhibition, fluorogenic PFR-AMC substrate, 500 pM activated kallikrein format. The class given is biochemical. Particulars: 500 pM activated kallikrein, 300 uM PFR-AMC, 30 min preincubation, 10 min reaction; read-out: Primary Dose Response Assay: Average EC50. In short, it runs like this:
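Fluorogenic readout (ex 380 / em 460 nm) after 10 min room-temperature reaction with 300 uM Pro-Phe-Arg-AMC substrate, following 30 min preincubation of inhibitors with 500 pM enzyme. Buffer: Tris pH 7.5, EDTA, NaCl, PEG-400, Triton X-100. Values given as EC50 ranges.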

Another assay deals with T1, plasma kallikrein (Homo sapiens, UniProt P03952).
T1 construct: from tissue
Briefly: Neat human plasma assay, FXIIa contact pathway-activated, PFR-AMC substrate. To be noted: citrated human plasma 78% final, 10 nM human FXIIa, 100 μM PFR-AMC; read-out: Human Plasma Assay: IC90. The class given is biochemical. Put shortly:
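Compound inhibition of plasma kallikrein measured as PFR-AMC (100 μM) cleavage rate over 5 min at room temperature in 78% citrated human plasma activated with 10 nM FXIIa (Tris pH 7.5 buffer). IC50/IC90 from 4-parameter fit of rate versus inhibitor concentration.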

T1 sequence (P03952 391-638 limits assumed): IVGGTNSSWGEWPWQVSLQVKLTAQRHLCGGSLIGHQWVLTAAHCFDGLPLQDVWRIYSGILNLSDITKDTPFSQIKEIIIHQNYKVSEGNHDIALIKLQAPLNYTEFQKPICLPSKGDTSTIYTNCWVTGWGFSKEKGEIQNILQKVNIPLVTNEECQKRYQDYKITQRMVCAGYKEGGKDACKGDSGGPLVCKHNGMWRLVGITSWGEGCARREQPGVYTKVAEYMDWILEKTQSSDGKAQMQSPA
T1 sequence (P03952 20-390 partner limits assumed): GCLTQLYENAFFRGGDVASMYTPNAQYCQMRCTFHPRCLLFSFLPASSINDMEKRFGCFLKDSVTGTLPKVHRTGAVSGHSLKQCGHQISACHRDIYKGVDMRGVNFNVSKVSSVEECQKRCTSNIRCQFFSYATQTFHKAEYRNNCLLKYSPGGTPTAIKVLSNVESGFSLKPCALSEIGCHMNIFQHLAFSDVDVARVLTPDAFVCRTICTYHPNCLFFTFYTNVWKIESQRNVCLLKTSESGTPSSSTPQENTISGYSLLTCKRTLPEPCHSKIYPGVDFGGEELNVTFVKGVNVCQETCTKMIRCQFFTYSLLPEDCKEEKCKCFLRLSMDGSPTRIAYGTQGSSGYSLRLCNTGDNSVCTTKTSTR
Sequence of human activated kallikrein enzyme (P03952 391-638 limits assumed): as the sequence (P03952 391-638 limits assumed) above
Sequence of human activated kallikrein enzyme (P03952 20-390 partner limits assumed): as the sequence (P03952 20-390 partner limits assumed) above

As to `Cc1ccnc([C@H]2C[C@@H]2C(=O)Nc2cc(N[C@H](C)c3cn4cc(C5(F)CC5)cc(N5CC(=O)N(C)C5=O)c4n3)ncn2)n1` [Example 424, (1S,2S)-N-(6-(((R)-1-(6-(1-fluorocyclopropyl)-8-(3-methyl-2,4-dioxoimidazolidin-1-yl)imidazo[1,2-a]pyridin-2-yl)ethyl)amino)pyrimidin-4-yl)-2-(4-methylpyrimidin-2-yl)cyclopropane-1-carboxamide], the EC50 in assay [1] was < 1 nM. The IC90 on plasma kallikrein was in the range of 400 to 1500 nM.
In the case of `Cc1ccnc([C@H]2C[C@@H]2C(=O)Nc2cc(N(C)Cc3cn4cc(C5CC5)cc(N5CC(=O)N(CC(C)(C)O)C5=O)c4n3)nc(C)n2)n1` [Example 359, (1S,2S)-N-(6-(((6-cyclopropyl-8-(3-(2-hydroxy-2-methylpropyl)-2,4-dioxoimidazolidin-1-yl)imidazo[1,2-a]pyridin-2-yl)methyl)(methyl)amino)-2-methylpyrimidin-4-yl)-2-(4-methylpyrimidin-2-yl)cyclopropane-1-carboxamide], the EC50 in assay [1] was < 1 nM. For the same compound, the IC90 at plasma kallikrein was 400 to 1500 nM.
For the compound `CN1CCC(O)(c2cc(C3CC3)cn3cc(CNc4cc(NC(=O)[C@H]5C[C@@H]5c5cccc(Cl)c5)ncn4)nc23)CC1` [Example 401, (1S,2S)-2-(3-chlorophenyl)-N-(6-(((6-cyclopropyl-8-(4-hydroxy-1-methylpiperidin-4-yl)imidazo[1,2-a]pyridin-2-yl)methyl)amino)pyrimidin-4-yl)cyclopropane-1-carboxamide], the EC50 in assay [1] was < 1 nM. The IC90 on plasma kallikrein fell in the range of 400 to 1500 nM.
With `O=C(Nc1cc(NCc2cn3cc(C4CC4)cc(N4CCCC4=O)c3n2)ncn1)[C@H]1C[C@@H]1c1cccc(Cl)c1` [Example 144, (1S,2S)-2-(3-chlorophenyl)-N-(6-(((6-cyclopropyl-8-(2-oxopyrrolidin-1-yl)imidazo[1,2-a]pyridin-2-yl)methyl)amino)pyrimidin-4-yl)cyclopropane-1-carboxamide], the EC50 in assay [1] is < 1 nM. Moreover, on plasma kallikrein, the IC90 was in the range of 400 to 1500 nM.
For the compound `Cc1cc(NCc2cn3cc(C4CC4)ccc3n2)cc(NC(=O)[C@H]2C[C@@H]2c2cccc(Cl)c2)n1` [Example 338, (1S,2S)-2-(3-chlorophenyl)-N-(4-(((6-cyclopropylimidazo[1,2-a]pyridin-2-yl)methyl)amino)-6-methylpyridin-2-yl)cyclopropane-1-carboxamide], the EC50 in assay [1] was < 1 nM. For the same compound, the IC90 at plasma kallikrein is 1500 to 10000 nM.
Regarding `O=C(Nc1cc(NCc2cn3cc(C4CC4)cc(N4CCCC4=O)c3n2)ccn1)[C@H]1C[C@@H]1c1cccc(Cl)c1` [Example 85, (1S,2S)-2-(3-chlorophenyl)-N-(4-(((6-cyclopropyl-8-(2-oxopyrrolidin-1-yl)imidazo[1,2-a]pyridin-2-yl)methyl)amino)pyridin-2-yl)cyclopropane-1-carboxamide], the EC50 in assay [1] was < 1 nM. The IC90 on plasma kallikrein lay within 400 to 1500 nM.
Regarding `CN1C(=O)CN(c2cc(C3CC3)cn3cc(CNc4cc(NC(=O)[C@H]5C[C@@H]5c5cc(Cl)ccc5C#N)ncn4)nc23)C1=O` (racemic) [Example I-170, rac-(1S*,2S*)-2-(5-chloro-2-cyanophenyl)-N-(6-(((6-cyclopropyl-8-(3-methyl-2,4-dioxoimidazolidin-1-yl)imidazo[1,2-a]pyridin-2-yl)methyl)amino)pyrimidin-4-yl)cyclopropane-1-carboxamide], the EC50 in assay [1] was < 1 nM. For the same compound, on plasma kallikrein, the IC90 lay in the range of 1500 to 10000 nM.
As for `Cc1ccnc([C@H]2C[C@@H]2C(=O)Nc2cc(NCc3cn4cc(C5CC5)cc(N5CC(=O)N(C)C5=O)c4n3)nc(C3CC3)n2)n1` [Example 410, (1S,2S)-N-(2-cyclopropyl-6-(((6-cyclopropyl-8-(3-methyl-2,4-dioxoimidazolidin-1-yl)imidazo[1,2-a]pyridin-2-yl)methyl)amino)pyrimidin-4-yl)-2-(4-methylpyrimidin-2-yl)cyclopropane-1-carboxamide], the EC50 in assay [1] is < 1 nM. Moreover, on plasma kallikrein, the IC90 is < 400 nM.
For `O=C(Nc1cc(NCc2cn3cc(C4CC4)cc(N4C[C@@H](O)CC4=O)c3n2)ncn1)[C@H]1C[C@@H]1c1cccc(Cl)c1` (relative stereo) [Example 62, (rac-(1S*,2S*))-2-(3-chlorophenyl)-N-(6-(((6-cyclopropyl-8-((S)-4-hydroxy-2-oxopyrrolidin-1-yl)imidazo[1,2-a]pyridin-2-yl)methyl)amino)pyrimidin-4-yl)cyclopropane-1-carboxamide], in that order: 1 to 10 nM and 1500 to 10000 nM.
On to `CC(=O)Nc1cc(C2CC2)cn2cc(CNc3ccnc(NC(=O)[C@H]4C[C@@H]4c4cccc(Cl)c4)c3)nc12` [Example 142, (1S,2S)-N-(4-(((8-acetamido-6-cyclopropylimidazo[1,2-a]pyridin-2-yl)methyl)amino)pyridin-2-yl)-2-(3-chlorophenyl)cyclopropane-1-carboxamide], for which, in assay [1], the EC50 was < 1 nM. Moreover, the IC90 at plasma kallikrein lay in the range of 1500 to 10000 nM.
For `CN1CCC(Oc2cc(C3CC3)cn3cc(CNc4cc(NC(=O)[C@H]5C[C@@H]5c5cccc(Cl)c5)ncn4)nc23)C1=O` (stereo partly drawn) [Example I-147, (1S,2S)-2-(3-chlorophenyl)-N-(6-(((6-cyclopropyl-8-((1-methyl-2-oxopyrrolidin-3-yl)oxy)imidazo[1,2-a]pyridin-2-yl)methyl)amino)pyrimidin-4-yl)cyclopropane-1-carboxamide] the same measures were 1 to 10 nM and 1500 to 10000 nM.
As for `COc1ccc(C#N)c([C@H]2C[C@@H]2C(=O)Nc2cc(NCc3cn4cc(C5CC5)ccc4n3)ccn2)c1` (single isomer, unassigned) [Example I-224, rac-(1S*,2S*)-2-(2-cyano-5-methoxyphenyl)-N-(4-(((6-cyclopropylimidazo[1,2-a]pyridin-2-yl)methyl)amino)pyridin-2-yl)cyclopropane-1-carboxamide], in assay [1], the EC50 was < 1 nM. At plasma kallikrein, the IC90 fell in the range of 10000 to 48000 nM.
With `Cc1ccnc([C@H]2C[C@@H]2C(=O)Nc2cc(NCc3cn4cc(C5CC5)cc(N5CC(=O)N(C)C5=O)c4n3)nc(C3(F)COC3)n2)n1` (racemic) [Example 114, rac-(1S*,2S*)—N-(6-(((6-cyclopropyl-8-(3-methyl-2,4-dioxoimidazolidin-1-yl)imidazo[1,2-a]pyridin-2-yl)methyl)amino)-2-(3-fluorooxetan-3-yl)pyrimidin-4-yl)-2-(4-methylpyrimidin-2-yl)cyclopropane-1-carboxamide], the EC50 in assay [1] is 1 to 10 nM. The IC90 on plasma kallikrein is 400 to 1500 nM.
As for `CN(C)S(=O)(=O)c1cc(C2CC2)cn2cc(CNc3cc(NC(=O)[C@H]4C[C@@H]4c4cccc(Cl)c4)ncn3)nc12` [Example I-151, (1S,2S)-2-(3-chlorophenyl)-N-(6-(((6-cyclopropyl-8-(N,N-dimethylsulfamoyl)imidazo[1,2-a]pyridin-2-yl)methyl)amino)pyrimidin-4-yl)cyclopropane-1-carboxamide], the EC50 in assay [1] was in the range of 1 to 10 nM. Besides, the IC90 at plasma kallikrein is 1500 to 10000 nM.
For `O=C(Nc1cc(NCc2cn3cc(C4CC4)cc(CCCO)c3n2)ccn1)[C@H]1C[C@@H]1c1cccc(Cl)c1` [Example 291, (1S,2S)-2-(3-chlorophenyl)-N-(4-(((6-cyclopropyl-8-(3-hydroxypropyl)imidazo[1,2-a]pyridin-2-yl)methyl)amino)pyridin-2-yl)cyclopropane-1-carboxamide], in that order: < 1 nM and 1500 to 10000 nM.
